Structures are written as SMILES.

For the test, the target named is T1, Siglec-2 (CD22) (Homo sapiens, UniProt P20273).
T1 sequence (P20273 20-847): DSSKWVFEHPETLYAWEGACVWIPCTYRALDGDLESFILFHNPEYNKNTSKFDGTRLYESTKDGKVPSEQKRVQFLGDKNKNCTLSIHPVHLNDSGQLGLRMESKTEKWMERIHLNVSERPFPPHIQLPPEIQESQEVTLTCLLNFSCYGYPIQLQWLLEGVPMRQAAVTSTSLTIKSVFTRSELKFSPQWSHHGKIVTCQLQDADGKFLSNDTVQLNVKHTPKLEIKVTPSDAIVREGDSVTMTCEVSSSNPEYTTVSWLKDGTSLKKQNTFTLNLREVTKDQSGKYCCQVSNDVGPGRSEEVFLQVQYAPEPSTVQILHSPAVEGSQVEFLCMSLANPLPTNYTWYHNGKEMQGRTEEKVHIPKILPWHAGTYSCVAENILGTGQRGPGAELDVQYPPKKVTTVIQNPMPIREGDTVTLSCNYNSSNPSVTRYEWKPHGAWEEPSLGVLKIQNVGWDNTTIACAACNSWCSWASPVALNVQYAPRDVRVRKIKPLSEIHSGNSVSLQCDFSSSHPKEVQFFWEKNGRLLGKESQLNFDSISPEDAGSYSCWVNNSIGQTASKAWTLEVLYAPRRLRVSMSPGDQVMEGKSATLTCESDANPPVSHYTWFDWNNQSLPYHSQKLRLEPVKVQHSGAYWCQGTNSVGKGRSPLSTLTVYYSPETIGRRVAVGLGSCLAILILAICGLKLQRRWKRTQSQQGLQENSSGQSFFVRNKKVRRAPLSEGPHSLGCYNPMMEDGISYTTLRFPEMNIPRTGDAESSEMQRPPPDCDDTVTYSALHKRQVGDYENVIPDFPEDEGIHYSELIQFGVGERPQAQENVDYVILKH
Kind of test: new affinity assay: displacement of biotinylated compound 155 from sialidase-treated Daudi cells, FACS with streptavidin-PE. The test is classed as binding. More on the design: endogenous in cells; host or cells: Daudi (human B-cell lymphoma line). To be noted: Table II; rIP values set relative to compound 38; Daudi cells, displacement of compound 155. On the procedure: To determine the affinity of the compound of the formula (I), approximately 5×10^6 to 2×10^8 cells of the human B-cell lymphoma line “Daudi” were incubated with sialidase (A. ureafaciens) at 37° C. for 1 h (final concentration 0.1 unit/ml). […] Batches of 1-2×10^6 cells were transferred to sample vessels, and incubated on ice for 15 min with serial concentrations (10-fold dilutions, 1 mM to 1×10^−7 mM) of the substance under measurement (inhibitor). The reaction volume was 50 μl. Then 50 microliters of compound 155 (4-micromolar) were added, and incubation took place for 20 min Washing with FACS buffer (PBS, 0.1 BSA, 0.01% sodium azide) was followed by incubation with streptavidin-PE in the dark for 15 min, followed by washing and measurement of the bound amount of […] via the streptavidin-PE in the FACS. For the determination of 0% displacement of the compound 155, cells without inhibitor were measured. For the determination of 100% displacement, cells were measured without compound 155 and without inhibitor. For each assay, four substances and one reference were measured. The IC50 values determined in each assay were subsequently converted into values of rIP (relative Inhibitory Potency). […]
The compound `CC(=O)N[C@H]1[C@H]([C@H](O)[C@H](O)CNC(=O)c2ccc(-c3ccccc3)cc2)O[C@@](OCCCSCCNC(=O)CSSCC(=O)NCCSCCCO[C@]2(C(=O)[O-])C[C@H](O)[C@@H](NC(C)=O)[C@H]([C@H](O)[C@H](O)CNC(=O)c3ccc(-c4ccccc4)cc3)O2)(C(=O)[O-])C[C@@H]1O.[Na+].[Na+]` [Compound 13] showed a rIP of 251.

`CC(=O)N[C@H]1[C@H]([C@H](O)[C@H](O)CNC(=O)c2ccc(-c3ccccc3)cc2)O[C@@](OCCCSCCNC(=O)c2ccc(-c3ccc(C(=O)NCCSCCCO[C@]4(C(=O)[O-])C[C@H](O)[C@@H](NC(C)=O)[C@H]([C@H](O)[C@H](O)CNC(=O)c5ccc(-c6ccccc6)cc5)O4)cc3)cc2)(C(=O)[O-])C[C@@H]1O.[Na+].[Na+]` [Compound 24] registered a rIP of 75.

`CC(=O)N[C@H]1[C@H]([C@H](O)[C@H](O)CNC(=O)c2ccc(-c3ccccc3)cc2)O[C@@](OCCCSCCNC(=O)C#CC(=O)NCCSCCCO[C@]2(C(=O)[O-])C[C@H](O)[C@@H](NC(C)=O)[C@H]([C@H](O)[C@H](O)CNC(=O)c3ccc(-c4ccccc4)cc3)O2)(C(=O)[O-])C[C@@H]1O.[Na+].[Na+]` [Compound 25] yielded a rIP of 4944.

Turning to `CC(=O)N[C@H]1[C@H]([C@H](O)[C@H](O)CNC(=O)c2ccc(-c3ccccc3)cc2)O[C@@](OCCCSCCNC(=O)c2ccc(C(=O)NCCSCCCO[C@]3(C(=O)[O-])C[C@H](O)[C@@H](NC(C)=O)[C@H]([C@H](O)[C@H](O)CNC(=O)c4ccc(-c5ccccc5)cc4)O3)nc2)(C(=O)[O-])C[C@@H]1O.[Na+].[Na+]` [Compound 27], the rIP was 2990.

On to `CC(=O)N[C@H]1[C@H]([C@H](O)[C@H](O)CNC(=O)c2ccc(-c3ccccc3)cc2)O[C@@](OCCCSCCNC(=O)Cc2ccc(CC(=O)NCCSCCCO[C@]3(C(=O)[O-])C[C@H](O)[C@@H](NC(C)=O)[C@H]([C@H](O)[C@H](O)CNC(=O)c4ccc(-c5ccccc5)cc4)O3)cc2)(C(=O)[O-])C[C@@H]1O.[Na+].[Na+]` [Compound 28], for which the rIP amounted to 129.

Take `CC(=O)N[C@H]1[C@H]([C@H](O)[C@H](O)CNC(=O)c2ccc(-c3ccccc3)cc2)O[C@@](OCCCSCCNC(=O)c2ccc(C(=O)NCCSCCCO[C@]3(C(=O)[O-])C[C@H](O)[C@@H](NC(C)=O)[C@H]([C@H](O)[C@H](O)CNC(=O)c4ccc(-c5ccccc5)cc4)O3)s2)(C(=O)[O-])C[C@@H]1O.[Na+].[Na+]` [Compound 29]: the rIP worked out at 2061.

As to `CC(=O)N[C@H]1[C@H]([C@H](O)[C@H](O)CNC(=O)c2ccc(-c3ccccc3)cc2)O[C@@](OCCCSCCNC(=O)C2CCC(C(=O)NCCSCCCO[C@]3(C(=O)[O-])C[C@H](O)[C@@H](NC(C)=O)[C@H]([C@H](O)[C@H](O)CNC(=O)c4ccc(-c5ccccc5)cc4)O3)CC2)(C(=O)[O-])C[C@@H]1O.[Na+].[Na+]` (some centres unmarked) [Compound 31], the rIP is on record as 643.

Turning to `CC(=O)N[C@H]1[C@H]([C@H](O)[C@H](O)CNC(=O)c2ccc(-c3ccccc3)cc2)O[C@@](OCCCSCCNC(=O)c2ccc(C(=O)NCCSCCCO[C@]3(C(=O)[O-])C[C@H](O)[C@@H](NC(C)=O)[C@H]([C@H](O)[C@H](O)CNC(=O)c4ccc(-c5ccccc5)cc4)O3)c3ccccc23)(C(=O)[O-])C[C@@H]1O.[Na+].[Na+]` [Compound 34], the rIP was 899.

As for `CC(=O)N[C@H]1[C@H]([C@H](O)[C@H](O)CNC(=O)c2ccc(-c3ccccc3)cc2)O[C@@](OCCCSCCNC(=O)c2ccccc2-c2ccccc2C(=O)NCCSCCCO[C@]2(C(=O)[O-])C[C@H](O)[C@@H](NC(C)=O)[C@H]([C@H](O)[C@H](O)CNC(=O)c3ccc(-c4ccccc4)cc3)O2)(C(=O)[O-])C[C@@H]1O.[Na+].[Na+]` [Compound 35], the rIP is listed as 717.

With `CC(=O)N[C@H]1[C@H]([C@H](O)[C@H](O)CNC(=O)c2ccc(-c3ccccc3)cc2)O[C@@](OCCCSCCNC(=O)CCC(=O)NCCSCCCO[C@]2(C(=O)[O-])C[C@H](O)[C@@H](NC(C)=O)[C@H]([C@H](O)[C@H](O)CNC(=O)c3ccc(-c4ccccc4)cc3)O2)(C(=O)[O-])C[C@@H]1O.[Na+].[Na+]` [Compound 36], the rIP is listed as 23.

Regarding `CC(=O)N[C@H]1[C@H]([C@H](O)[C@H](O)CNC(=O)c2ccc(-c3ccccc3)cc2)O[C@@](OCCCSCCNC(=O)CC(=O)NCCSCCCO[C@]2(C(=O)[O-])C[C@H](O)[C@@H](NC(C)=O)[C@H]([C@H](O)[C@H](O)CNC(=O)c3ccc(-c4ccccc4)cc3)O2)(C(=O)[O-])C[C@@H]1O.[Na+].[Na+]` [Compound 37], the rIP stood at 177.

As for `CC(=O)N[C@H]1[C@H]([C@H](O)[C@H](O)CNC(=O)c2ccc(-c3ccccc3)cc2)O[C@@](OCCCSCCC(=O)Nc2ccc(NC(=O)CCSCCCO[C@]3(C(=O)[O-])C[C@H](O)[C@@H](NC(C)=O)[C@H]([C@H](O)[C@H](O)CNC(=O)c4ccc(-c5ccccc5)cc4)O3)cc2)(C(=O)[O-])C[C@@H]1O.[Na+].[Na+]` [Compound 39], the rIP was 10760.

With `CC(=O)N[C@H]1[C@H]([C@H](O)[C@H](O)CNC(=O)c2ccc(-c3ccccc3)cc2)O[C@@](OCCCSCCC(=O)Nc2cccc(NC(=O)CCSCCCO[C@]3(C(=O)[O-])C[C@H](O)[C@@H](NC(C)=O)[C@H]([C@H](O)[C@H](O)CNC(=O)c4ccc(-c5ccccc5)cc4)O3)c2)(C(=O)[O-])C[C@@H]1O.[Na+].[Na+]` [Compound 41], the rIP came to 423.

For the compound `CC(=O)N[C@H]1[C@H]([C@H](O)[C@H](O)CNC(=O)c2ccc(-c3ccccc3)cc2)O[C@@](OCCCSCCC(=O)Nc2ccccc2NC(=O)CCSCCCO[C@]2(C(=O)[O-])C[C@H](O)[C@@H](NC(C)=O)[C@H]([C@H](O)[C@H](O)CNC(=O)c3ccc(-c4ccccc4)cc3)O2)(C(=O)[O-])C[C@@H]1O.[Na+].[Na+]` [Compound 42], the rIP is given as 359.

Consider `CC(=O)N[C@H]1[C@H]([C@H](O)[C@H](O)CNC(=O)c2ccc(-c3ccccc3)cc2)O[C@@](OCCCSCCC(=O)NCCCCCCNC(=O)CCSCCCO[C@]2(C(=O)[O-])C[C@H](O)[C@@H](NC(C)=O)[C@H]([C@H](O)[C@H](O)CNC(=O)c3ccc(-c4ccccc4)cc3)O2)(C(=O)[O-])C[C@@H]1O.[Na+].[Na+]` [Compound 43], for which the rIP was found to be 15.

`CC(=O)N[C@H]1[C@H]([C@H](O)[C@H](O)CNC(=O)c2ccc(-c3ccccc3)cc2)O[C@@](OCCCSCCC(=O)NCc2ccc(CNC(=O)CCSCCCO[C@]3(C(=O)[O-])C[C@H](O)[C@@H](NC(C)=O)[C@H]([C@H](O)[C@H](O)CNC(=O)c4ccc(-c5ccccc5)cc4)O3)cc2)(C(=O)[O-])C[C@@H]1O.[Na+].[Na+]` [Compound 44] displayed a rIP of 177.

The compound `CC(=O)N[C@H]1[C@H]([C@H](O)[C@H](O)CNC(=O)c2ccc(-c3ccccc3)cc2)O[C@@](OCCCSCCC(=O)Nc2c(C)c(C)c(NC(=O)CCSCCCO[C@]3(C(=O)[O-])C[C@H](O)[C@@H](NC(C)=O)[C@H]([C@H](O)[C@H](O)CNC(=O)c4ccc(-c5ccccc5)cc4)O3)c(C)c2C)(C(=O)[O-])C[C@@H]1O.[Na+].[Na+]` [Compound 45] came in with a rIP of 523.

Compound `CC(=O)N[C@H]1[C@H]([C@H](O)[C@H](O)CNC(=O)c2ccc(-c3ccccc3)cc2)O[C@@](OCCCSCCC(=O)NCCNC(=O)CCSCCCO[C@]2(C(=O)[O-])C[C@H](O)[C@@H](NC(C)=O)[C@H]([C@H](O)[C@H](O)CNC(=O)c3ccc(-c4ccccc4)cc3)O2)(C(=O)[O-])C[C@@H]1O.[Na+].[Na+]` [Compound 46] came in with a rIP of 290.

On to `CC(=O)N[C@H]1[C@H]([C@H](O)[C@H](O)CNC(=O)c2ccc(-c3ccccc3)cc2)O[C@@](OCCCSCCNC(=O)Nc2ccc(NC(=O)NCCSCCCO[C@]3(C(=O)[O-])C[C@H](O)[C@@H](NC(C)=O)[C@H]([C@H](O)[C@H](O)CNC(=O)c4ccc(-c5ccccc5)cc4)O3)cc2)(C(=O)[O-])C[C@@H]1O.[Na+].[Na+]` [Compound 49], for which the rIP was determined as 626.

`CC(=O)N[C@H]1[C@H]([C@H](O)[C@H](O)CNC(=O)c2ccc(-c3ccccc3)cc2)O[C@@](OCCCSCCNc2c(NCCSCCCO[C@]3(C(=O)[O-])C[C@H](O)[C@@H](NC(C)=O)[C@H]([C@H](O)[C@H](O)CNC(=O)c4ccc(-c5ccccc5)cc4)O3)c(=O)c2=O)(C(=O)[O-])C[C@@H]1O.[Na+].[Na+]` [Compound 51] returned a rIP of 299.
